The record followed here is patent US20220167618A1, “PESTICIDALLY ACTIVE AZOLE-AMIDE COMPOUNDS” (SYNGENTA CROP PROTECTION AG, priority 2019, published 2022).

Molecules are shown by their SMILES.

The test system of data set [1] is Spodoptera littoralis (Egyptian Cotton Leaf Worm). The data set can be described thus: Example B9: Spodoptera littoralis (Egyptian cotton leaf worm), sprayed cotton leaf discs. Format: in vivo. Particulars: foliar, 72 h, application rate 200 ppm, L1 larvae, 3 days after infestation, read-out: control in at least one of the three categories (mortality, anto-feedant or growth inhibition).

The test system of data set [2] is Diabrotica balteata (Corn Root Worm). The data set can be described thus: Example B1: Diabrotica balteata (corn root worm), sprayed maize sprouts. The format is in vivo. Particulars: 96 h, application rate 200 ppm, L2 larvae, 4 days after infestation, read-out: control in at least one of the two categories (mortality or growth inhibition). As for the experimental part: Example B1: Diabrotica balteata (Corn Root Worm)
Maize sprouts placed onto an agar layer in 24-well microtiter plates were treated with aqueous test solutions prepared from 10′000 ppm DMSO stock solutions by spraying. After drying, the plates were infested with L2 larvae (6 to 10 per well). The samples were assessed for mortality and growth inhibition in comparison to untreated samples 4 days after infestation.

Data set [3] relates to Plutella xylostella (Diamond Back Moth). The data set can be described thus: Example B5: Plutella xylostella (diamond back moth), artificial diet, 24-well. Particulars: 192 h, application rate 200 ppm, eggs, 8 days after infestation, read-out: control in at least one of the two categories (mortality or growth inhibition). Format: in vivo. As for the experimental part:
Example B5: Plutella xylostella (Diamond Back Moth)
24-well microtiter plates with artificial diet were treated with aqueous test solutions prepared from 10′000 ppm DMSO stock solutions by pipetting. After drying, Plutella eggs were pipetted through a plastic stencil onto a gel blotting paper and the plate was closed with it. The samples were assessed for mortality and growth inhibition in comparison to untreated samples 8 days after infestation.

The test system of data set [4] is Euschistus heros (Neotropical Brown Stink Bug). The data set can be described thus: Example B2: Euschistus heros (neotropical brown stink bug), sprayed soybean leaves. The format is in vivo. Particulars: 120 h, application rate 200 ppm, N2 nymphs, 5 days after infestation, read-out: control in at least one of the two categories (mortality or growth inhibition). As for the experimental part:
Example B2: Euschistus heros (Neotropical Brown Stink Bug)
Soybean leaves on agar in 24-well microtiter plates were sprayed with aqueous test solutions prepared from 10′000 ppm DMSO stock solutions. After drying the leaves were infested with N2 nymphs. The samples were assessed for mortality and growth inhibition in comparison to untreated samples 5 days after infestation.

Data set [5] has as its system Plutella xylostella (Diamondback Moth). The experiment in a line: Example B13: Plutella xylostella (diamondback moth), artificial diet, 96-well. Format: in vivo. The note with it: 216 h, application rate 500 ppm, eggs/L1 larvae, 9 days after infestation. As for the experimental part: Example B13: Plutella xylostella (Diamondback Moth)
96-well microtiter plates containing artificial diet were treated with aqueous test solutions, prepared from 10′000 ppm DMSO stock solutions, by a liquid handling robot. After drying, eggs (˜30 per well) were infested onto a netted lid which was suspended above the diet. The eggs hatch and L1 larvae move down to the diet. The samples were assessed for mortality 9 days after infestation.

Data set [6] has as its system Chilo suppressalis (Striped Rice Stemborer). The experiment in a line: Example B4: Chilo suppressalis (striped rice stemborer), artificial diet. The format is in vivo. The note with it: 144 h, application rate 200 ppm, L2 larvae, 6 days after infestation, read-out: control in at least one of the three categories (mortality, anti-feedant or growth inhibition). As for the experimental part: Example B4: Chilo suppressalis (Striped Rice Stemborer)
24-well microtiter plates with artificial diet were treated with aqueous test solutions prepared from 10′000 ppm DMSO stock solutions by pipetting. After drying, the plates were infested with L2 larvae (6-8 per well). The samples were assessed for mortality, anti-feeding effect, and growth inhibition in comparison to untreated samples 6 days after infestation. Control of Chilo suppressalis by a test sample is given when at least one of the categories mortality, anti-feedant effect, and growth inhibition is higher than the untreated sample.

Data set [7] deals with Myzus persicae (Green Peach Aphid). The experiment in a line: Example B12: Myzus persicae (green peach aphid), 96-well sucrose solution. Format: in vivo. The note with it: 120 h, application rate 50 ppm, 5 days after infestation. The source says: Example B12: Myzus persicae (Green Peach Aphid)
Test compounds prepared from 10′000 ppm DMSO stock solutions were applied by a liquid handling robot into 96-well microtiter plates and mixed with a sucrose solution. Parafilm was stretched over the 96-well microtiter plate and a plastic stencil with 96 holes was placed onto the plate. Aphids were sieved into the wells directly onto the Parafilm. The infested plates were closed with a gel blotting card and a second plastic stencil and then turned upside down. The samples were assessed for mortality 5 days after infestation.

What is called mortality is the percentage killed. Regarding `CC(NC(=O)c1cc(C(F)(F)F)cc(C(C)(C)C#N)c1)c1nc(Br)nn1-c1ccc(C#N)cn1` (centres unmarked) [Compound P36, N-[1-[5-bromo-2-(5-cyano-2-pyridyl)-1,2,4-triazol-3-yl]ethyl]-3-(1-cyano-1-methyl-ethyl)-5-(trifluoromethyl)benzamide], the percent control (mortality, anti-feedant or growth inhibition) at 200 ppm in data set [1] and in data set [6] was at least 80% each time. The percent control (mortality or growth inhibition) at 200 ppm in data set [2], in data set [3] and in data set [4] was at least 80% in each case. The compound further registered a mortality at 500 ppm in data set [5] of at least 80%.

What is called melting point is the temperature of the solid-liquid transition. With `CC(NC(=O)c1cc(C(F)(F)F)nc(C2(C#N)CC2)c1)c1nc(Br)nn1-c1ccc(OCC(F)F)cn1` (centres unmarked) [Compound P32, N-[1-[5-bromo-2-[5-(2,2-difluoroethoxy)-2-pyridyl]-1,2,4-triazol-3-yl]ethyl]-2-(1-cyanocyclopropyl)-6-(trifluoromethyl)pyridine-4-carboxamide], the melting point was 147 to 149 °C.

`CC(NC(=O)c1cc(C(F)(F)F)nc(C2(C#N)CC2)c1)c1nc(Br)nn1-c1ncc(OCC(F)(F)F)cn1` (centres unmarked) [Compound P34, N-[1-[5-bromo-2-[5-(2,2,2-trifluoroethoxy)pyrimidin-2-yl]-1,2,4-triazol-3-yl]ethyl]-2-(1-cyanocyclopropyl)-6-(trifluoromethyl)pyridine-4-carboxamide] came in with a melting point of 157 to 159 °C.

`CC(NC(=O)c1cc(C(F)(F)F)nc(C2(C#N)CC2)c1)c1nc(Br)nn1-c1ccc(OCC(F)(F)F)cn1` (centres unmarked) [Compound P33, N-[1-[5-bromo-2-[5-(2,2,2-trifluoroethoxy)-2-pyridyl]-1,2,4-triazol-3-yl]ethyl]-2-(1-cyanocyclopropyl)-6-(trifluoromethyl)pyridine-4-carboxamide] returned a melting point of 82 to 84 °C.

On to `CC(NC(=O)c1cc(C(F)(F)F)cc(C(C)(C)C#N)c1)c1nc(Br)nn1-c1ccc(OC(F)F)cn1` (centres unmarked) [Compound P37, N-[1-[5-bromo-2-[5-(difluoromethoxy)-2-pyridyl]-1,2,4-triazol-3-yl]ethyl]-3-(1-cyano-1-methyl-ethyl)-5-(trifluoromethyl)benzamide], for which the percent control (mortality, anti-feedant or growth inhibition) at 200 ppm in data set [1] and in data set [6] was at least 80% throughout. Also, the percent control (mortality or growth inhibition) at 200 ppm in data set [2], in data set [3] and in data set [4] was at least 80% throughout.

In the case of `CC(NC(=O)c1cc(C2CC2)cc(C(F)(F)F)c1)c1nc(Br)nn1-c1ncc(OC(F)F)cn1` (centres unmarked) [Compound P26, N-[1-[5-bromo-2-[5-(difluoromethoxy)pyrimidin-2-yl]-1,2,4-triazol-3-yl]ethyl]-3-cyclopropyl-5-(trifluoromethyl)benzamide], in data set [7], the mortality at 50 ppm is at least 80%. The percent control (mortality, anti-feedant or growth inhibition) at 200 ppm in data set [1] and in data set [6] was at least 80% each time. The percent control (mortality or growth inhibition) at 200 ppm in data set [2] and in data set [3] was at least 80% in each case. For the same compound, the mortality at 500 ppm in data set [5] was at least 80%.

For `CC(NC(=O)c1cc(C2CC2(F)F)cc(C(F)(F)F)c1)c1nc(Br)nn1-c1ncc(OCC(F)(F)F)cn1` (centres unmarked) [Compound P11, N-[1-[5-bromo-2-[5-(2,2,2-trifluoroethoxy)pyrimidin-2-yl]-1,2,4-triazol-3-yl]ethyl]-3-(2,2-difluorocyclopropyl)-5-(trifluoromethyl)benzamide], the percent control (mortality, anti-feedant or growth inhibition) at 200 ppm in data set [1] and in data set [6] was at least 80% throughout. Further, the percent control (mortality or growth inhibition) at 200 ppm in data set [2], in data set [3] and in data set [4] was at least 80% each time. In data set [5], this compound returned a mortality at 500 ppm of at least 80%.

`CC(NC(=O)c1cc(C(F)(F)F)nc(C2(C#N)CC2)c1)c1nc(Br)nn1-c1ccc(OC(F)F)cn1` (centres unmarked) [Compound P30, N-[1-[5-bromo-2-[5-(difluoromethoxy)-2-pyridyl]-1,2,4-triazol-3-yl]ethyl]-2-(1-cyanocyclopropyl)-6-(trifluoromethyl)pyridine-4-carboxamide] registered a melting point of 152 to 154 °C.

Regarding `CC(NC(=O)c1cc(C2CC2(F)F)cc(C(F)(F)F)c1)c1nc(Br)nn1-c1ccc(C#N)cn1` (centres unmarked) [Compound P6, N-[1-[5-bromo-2-(5-cyano-2-pyridyl)-1,2,4-triazol-3-yl]ethyl]-3-(2,2-difluorocyclopropyl)-5-(trifluoromethyl)benzamide], the percent control (mortality, anti-feedant or growth inhibition) at 200 ppm in data set [1] and in data set [6] was at least 80% in each case. Besides, the percent control (mortality or growth inhibition) at 200 ppm in data set [2] and in data set [3] was at least 80% in each case. Also, the mortality at 500 ppm in data set [5] was at least 80%.

With `CC(NC(=O)c1cc(C2CC2(F)F)cc(C(F)(F)F)c1)c1nc(Br)nn1-c1ccc(OC(F)F)cn1` (centres unmarked) [Compound P7, N-[1-[5-bromo-2-[5-(difluoromethoxy)-2-pyridyl]-1,2,4-triazol-3-yl]ethyl]-3-(2,2-difluorocyclopropyl)-5-(trifluoromethyl)benzamide], the mortality at 50 ppm in data set [7] was at least 80%. Further, the percent control (mortality, anti-feedant or growth inhibition) at 200 ppm in data set [1] and in data set [6] was at least 80% each time. For the same compound, the percent control (mortality or growth inhibition) at 200 ppm in data set [2] and in data set [3] was at least 80% each time. Besides, the mortality at 500 ppm in data set [5] is at least 80%.

For `CC(NC(=O)c1cc(C(F)(F)F)cc(C(F)(F)C2CC2)c1)c1nc(Br)nn1-c1ccc(OCC(F)F)cn1` (centres unmarked) [Compound P31, N-[1-[5-bromo-2-[5-(2,2-difluoroethoxy)-2-pyridyl]-1,2,4-triazol-3-yl]ethyl]-3-[cyclopropyl(difluoro)methyl]-5-(trifluoromethyl)benzamide], the melting point fell in the range of 140 to 142 °C.

As to `CC(NC(=O)c1cc(C2CC2)cc(C(F)(F)F)c1)c1nc(Br)nn1-c1ncc(OCC(F)(F)F)cn1` (centres unmarked) [Compound P5, N-[1-[5-bromo-2-[5-(2,2,2-trifluoroethoxy)pyrimidin-2-yl]-1,2,4-triazol-3-yl]ethyl]-3-cyclopropyl-5-(trifluoromethyl)benzamide], the percent control (mortality, anti-feedant or growth inhibition) at 200 ppm in data set [1] and in data set [6] was at least 80% throughout. The percent control (mortality or growth inhibition) at 200 ppm in data set [2] and in data set [3] was at least 80% each time. The compound further had a mortality at 500 ppm in data set [5] of at least 80%.

Take `CC(NC(=O)c1cc(C2CC2)nc(C(F)(F)F)c1)c1nc(Br)nn1-c1ncc(OCC(F)F)cn1` (centres unmarked) [Compound P14, N-[1-[5-bromo-2-[5-(2,2-difluoroethoxy)pyrimidin-2-yl]-1,2,4-triazol-3-yl]ethyl]-2-cyclopropyl-6-(trifluoromethyl)pyridine-4-carboxamide]: in data set [7], the mortality at 50 ppm is at least 80%. The percent control (mortality, anti-feedant or growth inhibition) at 200 ppm in data set [1] and in data set [6] was at least 80% throughout. Moreover, the percent control (mortality or growth inhibition) at 200 ppm in data set [2] and in data set [3] was at least 80% each time. The mortality at 500 ppm in data set [5] was at least 80%.
